Patent US20220265590A1, “DIBENZYLAMINES AS AMINO ACID TRANSPORT INHIBITORS” (VANDERBILT UNIVERSITY, priority 2019, published 2022)

Experiments:
[1] = test system: HEK293 cells; experiment: Viability (Cell Titer, CellTiter-Glo); type: cell-based; settings: Homo sapiens, 48 h incubation, 96-well plate
Method: Viability (Cell Titer) was evaluated using a commercially available chemiluminescent reagents (CellTiter-Glo, Promega Corp. G7572) in 96-well plate format according to the manufacturers protocol. Cells were exposed to either vehicle or test agent at the indicated concentrations and incubated for a period of 48 h. Subsequently, CellTiter-Glo reagent was added and the plates were read using a plate reader (BioTek Synergy 4) with standard settings.

[2] = test system: HEK293 cells; experiment: Glutamine uptake inhibition assay (3H-labeled glutamine accumulation in live cells); type: cell-based; settings: Homo sapiens, 15 minutes incubation with 3H-GLN (500 nM), assay buffer pH 6, triplicate, read-out: ^3H Glut IC50
Method: Twenty-four hours prior to assay, HEK293 cells were seeded at a density of 12K cells per well into a 96 well plate (coated with poly-D-Lysine). […] Accumulation of 3H-labeled glutamine (3H-GLN) in live cells was assessed by incubation for 15 minutes with vehicle or test reagent at the concentrations indicated. The final concentration of 3H-GLN was 500 nM. Each compound was evaluated in triplicate. For the assay, cells were rinsed with assay buffer (pH 6) three times (100 uL). Compounds were transferred in a single-add protocol and incubated for 15 minutes with 3H-GLN. After the uptake period, the supernatant was removed and cell monolayers were washed 3× with 100 μl assay buffer. Subsequently, cells were lysed with 50 μl 1M NaOH and 150 μl scintillation liquid was added to each well. The plate was incubated at room temperature for 20 minutes, transferred to 4° C. storage overnight, and read the next day using a top-count plate reader (Perkin Elmer).

N[C@@H](CCN(Cc1ccccc1OCc1ccc(Cl)cc1)Cc1ccccc1Oc1ccc(Cl)cc1)C(=O)O [Cpd. No. 11, (S)-2-amino-4-((2-((4-chlorobenzyl)oxy)benzyl)(2-(4-chlorophenoxy)benzyl)amino)butanoic acid]
IC50 [1]: 12.7 µM | IC50 [2]: < 100 µM

COc1cccc(COc2ccccc2CN(CC[C@H](N)C(=O)O)Cc2ccccc2Oc2ccc(Cl)cc2)c1 [Cpd. No. 20, (S)-2-amino-4-((2-(4-chlorophenoxy)benzyl)(2-((3-methoxybenzyl)oxy)benzyl)amino) butanoic acid]
IC50 [1]: 13.9 µM | IC50 [2]: 3.19 µM

Cc1cccc(COc2ccccc2CN(CC[C@H](N)C(=O)O)Cc2ccccc2Oc2ccc(Cl)cc2)c1 [Cpd. No. 21, (S)-2-amino-4-((2-(4-chlorophenoxy)benzyl)(2-((3-methylbenzyl)oxy)benzyl)amino) butanoic acid]
IC50 [1]: 28.9 µM | IC50 [2]: 25.1 µM

N[C@@H](CCN(Cc1ccccc1OCc1ccccc1F)Cc1ccccc1Oc1ccccc1F)C(=O)O [compound 7, (S)-2-amino-4-((2-((2-fluorobenzyl)oxy)benzyl)(2-(2-fluorophenoxy)benzyl)amino)butanoic acid]
IC50 [1]: 18.7 µM | IC50 [2]: 94.2 µM

N[C@@H](CCN(Cc1ccccc1OCc1ccc(F)cc1)Cc1ccccc1Oc1ccccc1F)C(=O)O [compound 8, (S)-2-amino-4-((2-((4-fluorobenzyl)oxy)benzyl)(2-(2-fluorophenoxy)benzyl)amino)butanoic acid]
IC50 [2]: 117 µM

N[C@@H](CCN(Cc1ccccc1OCc1ccccc1F)Cc1ccccc1Oc1ccc(Cl)cc1)C(=O)O [compound 10, (S)-2-amino-4-((2-(4-chlorophenoxy)benzyl)(2-((2-fluorobenzyl)oxy)benzyl)amino)butanoic acid]
IC50 [2]: 43 µM

COc1ccc(Oc2ccccc2CN(CC[C@H](N)C(=O)O)Cc2ccccc2OCc2ccc(F)cc2)cc1 [compound 13, (S)-2-amino-4-((2-((4-fluorobenzyl)oxy)benzyl)(2-(4-methoxyphenoxy)benzyl)amino)butanoic acid]
IC50 [2]: 29 µM

COc1ccc(Oc2ccccc2CN(CC[C@H](N)C(=O)O)Cc2ccccc2OCc2ccc(Cl)cc2)cc1 [compound 14, (S)-2-amino-4-((2-((4-chlorobenzyl)oxy)benzyl)(2-(4-methoxyphenoxy)benzyl)amino)butanoic acid]
IC50 [2]: 164 µM

N[C@@H](CCN(Cc1ccccc1OCc1ccc(F)cc1)Cc1ccccc1Oc1ccc(Cl)cc1)C(=O)O [compound 15, (S)-2-amino-4-((2-(4-chlorophenoxy)benzyl)(2-((4-fluorobenzyl)oxy)benzyl)amino)butanoic acid]
IC50 [2]: 31.4 µM
